Series [1] has as its target T1, Nonstructural protein 5A (Hepatitis C virus) (UniProt Q5L478).
T1 sequence (whole entry): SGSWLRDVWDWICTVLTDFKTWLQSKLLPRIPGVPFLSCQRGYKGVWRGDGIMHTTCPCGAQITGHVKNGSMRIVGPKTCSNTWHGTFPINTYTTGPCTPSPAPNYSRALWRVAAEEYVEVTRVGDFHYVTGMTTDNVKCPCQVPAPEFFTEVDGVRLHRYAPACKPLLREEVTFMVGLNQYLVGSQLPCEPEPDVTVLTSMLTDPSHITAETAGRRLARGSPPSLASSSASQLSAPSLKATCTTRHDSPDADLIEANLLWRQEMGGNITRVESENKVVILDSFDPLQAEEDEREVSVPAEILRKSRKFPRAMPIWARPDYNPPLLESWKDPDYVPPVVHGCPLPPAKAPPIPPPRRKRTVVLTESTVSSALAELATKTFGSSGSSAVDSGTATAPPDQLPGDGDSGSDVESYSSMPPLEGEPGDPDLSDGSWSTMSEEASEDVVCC
Briefly: Potency index, ratio of EC50 of cpd1 to EC50 of compound for inhibition of HCV genotype 2a con NS5A infected in HuH-Lcu-Neo cells assessed as reduction in viral replication incubated for 48 hrs by luciferase reporter gene assay. To be noted: Hepatitis C virus subtype 2a. Format: cell-based. (In general: Reporter assays use an easily measured gene product as a stand-in for the process of interest.)

Series [2] in a line: Oral availability in Han Wistar rat at 5 mg/kg by LC-MS/MS analysis. It is filed as ADME, organism-based. To be noted: in vivo.
Series [3] in a line: AUC (0 to infinity) in CD1 mouse at 5 mg/kg, po by LC-MS/MS analysis. It is filed as ADME, organism-based. Further details: dose 5 mg/kg, route oral, time infinity. The settings on record: in vivo.
The nature of series [4]: Clearance in Han Wistar rat at 1 mg/kg, iv by LC-MS/MS analysis. It is filed as ADME, organism-based. To be noted: in vivo.
The nature of series [5]: AUC (0 to t) in Han Wistar rat at 1 mg/kg, iv by LC-MS/MS analysis. Format: ADME, organism-based. To be noted: in vivo.
The nature of series [6]: AUC (0 to t) in Beagle dog at 1 mg/kg, iv by LC-MS/MS analysis. Format: ADME, organism-based, Canis lupus familiaris. The settings on record: in vivo.
Series [7] in a line: Half life in CD1 mouse at 5 mg/kg, po by LC-MS/MS analysis. Format: ADME, organism-based. To be noted: in vivo.
Series [8] can be described thus: Tmax in CD1 mouse at 5 mg/kg, po by LC-MS/MS analysis. To be noted: in vivo. Format: ADME, organism-based.
The nature of series [9]: AUC (0 to t) in Beagle dog at 1 mg/kg, po by LC-MS/MS analysis. To be noted: in vivo. Format: ADME, organism-based, Canis lupus familiaris.
Series [10] is described as follows: AUC (0 to t) in CD1 mouse at 1 mg/kg, iv by LC-MS/MS analysis. Format: ADME, organism-based. To be noted: in vivo.
A short description of series [11]: AUC (0 to t) in Han Wistar rat at 5 mg/kg, po by LC-MS/MS analysis. Format: ADME, organism-based. To be noted: in vivo.
Series [12] can be described thus: AUC (0 to infinity) in Han Wistar rat at 5 mg/kg, po by LC-MS/MS analysis. Format: ADME, organism-based. Details: dose 5 mg/kg, time infinity, route oral. The settings on record: in vivo.
Series [13] can be described thus: AUC (0 to infinity) in Beagle dog at 1 mg/kg, iv by LC-MS/MS analysis. The settings on record: in vivo. Details: dose 1 mg/kg, route intravenous, time infinity. Format: ADME, organism-based, Canis lupus familiaris.
Series [14] in a line: AUC (0 to infinity) in Beagle dog at 1 mg/kg, po by LC-MS/MS analysis. Further details: dose 1 mg/kg, route oral, time infinity. It is filed as ADME, organism-based, Canis lupus familiaris. To be noted: in vivo.
Series [15] in a line: Half life in Han Wistar rat at 5 mg/kg, po by LC-MS/MS analysis. Format: ADME, organism-based. To be noted: in vivo.
Series [16] can be described thus: Oral bioavailability in CD1 mouse at 5 mg/kg by LC-MS/MS analysis. Format: ADME, organism-based. The settings on record: in vivo.
Series [17] in a line: Cmax in Han Wistar rat at 5 mg/kg, po by LC-MS/MS analysis. It is filed as ADME, organism-based. Further details: dose 5 mg/kg, route oral. The settings on record: in vivo.
The nature of series [18]: Half life in Beagle dog at 1 mg/kg, po by LC-MS/MS analysis. It is filed as ADME, organism-based, Canis lupus familiaris. The settings on record: in vivo.
Series [19] in a line: Cmax in Beagle dog at 1 mg/kg, po by LC-MS/MS analysis. Format: ADME, organism-based, Canis lupus familiaris. Further details: dose 1 mg/kg, route oral. The settings on record: in vivo.
A short description of series [20]: AUC (0 to t) in CD1 mouse at 5 mg/kg, po by LC-MS/MS analysis. To be noted: in vivo. Format: ADME, organism-based.
Series [21] can be described thus: Volume of distribution at steady state in CD1 mouse at 1 mg/kg, iv by LC-MS/MS analysis. Format: ADME, organism-based. To be noted: in vivo, read-out: Vdss.
Series [22] can be described thus: Half life in Han Wistar rat at 1 mg/kg, iv by LC-MS/MS analysis. The settings on record: in vivo. Format: ADME, organism-based.
The nature of series [23]: Tmax in Han Wistar rat at 5 mg/kg, po by LC-MS/MS analysis. It is filed as ADME, organism-based. To be noted: in vivo.
The nature of series [24]: Half life in CD1 mouse at 1 mg/kg, iv by LC-MS/MS analysis. It is filed as ADME, organism-based. To be noted: in vivo.
The nature of series [25]: AUC (0 to infinity) in Han Wistar rat at 1 mg/kg, iv by LC-MS/MS analysis. It is filed as ADME, organism-based. Details: dose 1 mg/kg, time infinity, route intravenous. To be noted: in vivo.
A short description of series [26]: Half life in Beagle dog at 1 mg/kg, iv by LC-MS/MS analysis. It is filed as ADME, organism-based, Canis lupus familiaris. To be noted: in vivo.
Series [27] is described as follows: Clearance in Beagle dog at 1 mg/kg, iv by LC-MS/MS analysis. It is filed as ADME, organism-based, Canis lupus familiaris. To be noted: in vivo.
Series [28] can be described thus: Tmax in Beagle dog at 1 mg/kg, po by LC-MS/MS analysis. Format: ADME, organism-based, Canis lupus familiaris. To be noted: in vivo.
A short description of series [29]: Volume of distribution at steady state in Han Wistar rat at 1 mg/kg, iv by LC-MS/MS analysis. To be noted: in vivo, read-out: Vdss. Format: ADME, organism-based.
A short description of series [30]: Cmax in CD1 mouse at 5 mg/kg, po by LC-MS/MS analysis. Format: ADME, organism-based. Details: dose 5 mg/kg, route oral. The settings on record: in vivo.
Series [31] can be described thus: Clearance in CD1 mouse at 1 mg/kg, iv by LC-MS/MS analysis. Format: ADME, organism-based. To be noted: in vivo.
A short description of series [32]: Oral bioavailability in Beagle dog at 1 mg/kg by LC-MS/MS analysis. Format: ADME, organism-based, Canis lupus familiaris. The settings on record: in vivo.
The nature of series [33]: AUC (0 to infinity) in CD1 mouse at 1 mg/kg, iv by LC-MS/MS analysis. Further details: dose 1 mg/kg, time infinity, route intravenous. It is filed as ADME, organism-based. To be noted: in vivo.
Series [34] is described as follows: Volume of distribution at steady state in Beagle dog at 1 mg/kg, iv by LC-MS/MS analysis. It is filed as ADME, organism-based, Canis lupus familiaris. To be noted: in vivo, read-out: Vdss.

Experimental findings from ChEMBL document CHEMBL4354870, “GSK2818713, a Novel Biphenylene Scaffold-Based Hepatitis C NS5A Replication Complex Inhibitor with Broad Genotype Coverage” (J Med Chem, 2020) are described below.

As usually defined, the bioavailability is the share of a dose that reaches the circulation, judged against a reference dose that is usually intravenous. A low value points to little systemic uptake. A word on the AUC(0-inf): it is total exposure, with the tail of the curve extrapolated. The low end stands for low exposure, the high end for high exposure. The clearance is a measure of how efficiently the substance is removed, as volume per time. Read a high clearance as a high capacity for elimination. As usually defined, the AUC(0-t) is exposure summed from dosing to a finite time, without extrapolation to infinity. The low end stands for low exposure, the high end for high exposure. As a reminder, the half-life is how long it takes for the measured level to halve. Low values mean fast loss, high ones slow loss. What is called Tmax is the time from dosing to the highest level. For orientation: Cmax means the maximum level reached in the sampled fluid or tissue.

SMILES strings stand for the structures.

As for `COC(=O)N[C@H](C(=O)N1CCC[C@H]1c1ncc(-c2ccc3c(c2)-c2ccc(-c4cnc([C@@H]5CCCN5C(=O)[C@@H](c5ccccc5)N(C)C)[nH]4)cc2-3)[nH]1)C(C)C`, the Ratio EC50 in series [1] stood at 22.
Regarding `COC(=O)N[C@H](C(=O)N1[C@H](c2ncc(-c3ccc4c(c3)-c3ccc(-c5cnc([C@@H]6C[C@@H]7CCC[C@@H]7N6C(=O)[C@@H](NC(=O)OC)[C@@H](C)OC)[nH]5)cc3-4)[nH]2)C[C@@H]2CCC[C@@H]21)[C@@H](C)OC`, the bioavailability in series [2] turned out to be 9%; in series [16] it was 46%; in series [32], 20%. Besides, the AUC(0-inf) in [3] turned out to be 2550 ng·h/mL; in series [12] it was 216 ng·h/mL; in series [13], 3180 ng·h/mL; in series [14], 633 ng·h/mL; in [25], 501 ng·h/mL; in [33], 1100 ng·h/mL. Further, the results for the clearance in series [4], in series [27] and in series [31] were 33.8 mL/min/kg, 5.3 mL/min/kg and 15.4 mL/min/kg, respectively. In addition, the AUC(0-t) in [5] was 498 ng·h/mL; in series [6], 3140 ng·h/mL; in series [9] it was 593 ng·h/mL; in [10], 1070 ng·h/mL; in series [11] it was 178 ng·h/mL; in series [20] it was 2490 ng·h/mL. Further, the half-life in [7] was 1.7 h; in [15], 4.8 h; in [18], 6 h; in series [22] it was 1.5 h; in series [24] it was 1.7 h; in series [26], 5.2 h. In addition, the time of peak concentration (Tmax) was 2 h in [8], 2 h in series [23] and 4 h in series [28]. Further, the values for the Cmax in series [17], in [19] and in series [30] were 32 ng/mL, 99 ng/mL and 506 ng/mL, respectively. Moreover, the Vd in [21] was 1.3 L/kg; in series [29] it was 1.3 L/kg; in [34], 1 L/kg.
